The text below walks through data of ChEMBL document CHEMBL5370623, “Discovery of Quinazoline-2,4(1H,3H)-dione Derivatives Containing a Piperizinone Moiety as Potent PARP-1/2 Inhibitors─Design, Synthesis, In Vivo Antitumor Activity, and X-ray Crystal Structure Analysis” (J Med Chem, 2023).

By inhibition is commonly meant how much of the control response was suppressed.

The subject of one assay is THP-1. The experiment in a line: Inhibition of PARP1/2 mediated DNA repair pathway in human THP-1 cells assessed as induction of gamma-H2AX phosphorylation at 10 uM incubated for 24 hrs by immunoblotting analysis. Type of assay: cell-based. Background: A western blot detects proteins with antibodies after separation by electrophoresis.
The target of assay [1] is Protein mono-ADP-ribosyltransferase PARP14 (Homo sapiens) (UniProt Q460N5). The experiment in a line: Inhibition of human N-terminal GST/His-tagged recombinant PARP14 (1470 to 1801(end) residues) expressed in Sf9 cells at 1 uM relative to control.
The target in assay [2] is Protein mono-ADP-ribosyltransferase PARP11 (Homo sapiens) (UniProt Q9NR21). Kind of assay: Inhibition of human N-terminal FLAG-tagged/C-terminal His-tagged recombinant PARP11 (8 to 338 (end) residues) expressed in Sf9 cells at 1 uM relative to control.
For assay [3], the target named is Poly [ADP-ribose] polymerase tankyrase-1 (Homo sapiens) (UniProt O95271). The experiment in a line: Inhibition of human recombinant N-terminal GST-tagged TNKS1 (1001 to 1327(end) residues) expressed in Sf9 cells at 1 uM relative to control.
Sequence of Poly [ADP-ribose] polymerase tankyrase-1 (Homo sapiens) (O95271 whole entry, the tested form may be a part): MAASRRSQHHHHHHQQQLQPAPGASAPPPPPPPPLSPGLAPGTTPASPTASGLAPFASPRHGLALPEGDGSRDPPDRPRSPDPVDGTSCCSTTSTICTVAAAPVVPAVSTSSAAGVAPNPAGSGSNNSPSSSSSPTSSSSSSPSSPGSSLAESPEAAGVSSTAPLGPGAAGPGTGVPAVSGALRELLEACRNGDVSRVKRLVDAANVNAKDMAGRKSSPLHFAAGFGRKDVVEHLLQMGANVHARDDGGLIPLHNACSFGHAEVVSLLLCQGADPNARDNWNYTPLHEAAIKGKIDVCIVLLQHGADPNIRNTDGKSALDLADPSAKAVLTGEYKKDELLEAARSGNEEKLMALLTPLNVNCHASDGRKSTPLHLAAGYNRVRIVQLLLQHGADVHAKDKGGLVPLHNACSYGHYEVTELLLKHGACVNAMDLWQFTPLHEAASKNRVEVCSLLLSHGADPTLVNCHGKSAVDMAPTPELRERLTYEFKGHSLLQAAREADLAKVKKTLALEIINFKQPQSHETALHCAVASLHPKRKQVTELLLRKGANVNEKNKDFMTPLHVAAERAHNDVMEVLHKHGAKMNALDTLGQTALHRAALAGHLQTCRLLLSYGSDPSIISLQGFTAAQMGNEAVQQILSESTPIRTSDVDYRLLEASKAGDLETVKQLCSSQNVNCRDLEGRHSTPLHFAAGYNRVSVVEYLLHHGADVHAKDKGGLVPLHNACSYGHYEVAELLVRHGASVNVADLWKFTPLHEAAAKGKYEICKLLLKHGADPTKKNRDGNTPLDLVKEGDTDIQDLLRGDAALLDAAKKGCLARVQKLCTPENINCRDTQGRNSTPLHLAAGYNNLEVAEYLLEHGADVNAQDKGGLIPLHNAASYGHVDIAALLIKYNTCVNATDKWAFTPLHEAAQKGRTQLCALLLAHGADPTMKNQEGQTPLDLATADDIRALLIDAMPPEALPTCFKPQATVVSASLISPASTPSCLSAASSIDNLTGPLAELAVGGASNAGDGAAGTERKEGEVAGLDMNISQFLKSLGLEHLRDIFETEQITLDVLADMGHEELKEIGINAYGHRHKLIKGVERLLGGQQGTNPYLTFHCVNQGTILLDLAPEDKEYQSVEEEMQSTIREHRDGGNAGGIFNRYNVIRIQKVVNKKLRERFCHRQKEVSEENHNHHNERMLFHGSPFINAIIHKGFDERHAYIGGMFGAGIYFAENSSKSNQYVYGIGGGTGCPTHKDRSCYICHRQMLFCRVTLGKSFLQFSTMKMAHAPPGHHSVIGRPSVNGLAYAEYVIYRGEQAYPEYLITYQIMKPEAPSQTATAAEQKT
The target in assay [4] is Protein mono-ADP-ribosyltransferase PARP10 (Homo sapiens) (UniProt Q53GL7). Kind of assay: Inhibition of human N-terminal FLAG-tagged/C-terminal Strep-tagged recombinant PARP10 (805 to 1025 residues) expressed in Sf9 cells at 1 uM relative to control.
Sequence of Protein mono-ADP-ribosyltransferase PARP10 (Homo sapiens) (Q53GL7 whole entry, the tested form may be a part): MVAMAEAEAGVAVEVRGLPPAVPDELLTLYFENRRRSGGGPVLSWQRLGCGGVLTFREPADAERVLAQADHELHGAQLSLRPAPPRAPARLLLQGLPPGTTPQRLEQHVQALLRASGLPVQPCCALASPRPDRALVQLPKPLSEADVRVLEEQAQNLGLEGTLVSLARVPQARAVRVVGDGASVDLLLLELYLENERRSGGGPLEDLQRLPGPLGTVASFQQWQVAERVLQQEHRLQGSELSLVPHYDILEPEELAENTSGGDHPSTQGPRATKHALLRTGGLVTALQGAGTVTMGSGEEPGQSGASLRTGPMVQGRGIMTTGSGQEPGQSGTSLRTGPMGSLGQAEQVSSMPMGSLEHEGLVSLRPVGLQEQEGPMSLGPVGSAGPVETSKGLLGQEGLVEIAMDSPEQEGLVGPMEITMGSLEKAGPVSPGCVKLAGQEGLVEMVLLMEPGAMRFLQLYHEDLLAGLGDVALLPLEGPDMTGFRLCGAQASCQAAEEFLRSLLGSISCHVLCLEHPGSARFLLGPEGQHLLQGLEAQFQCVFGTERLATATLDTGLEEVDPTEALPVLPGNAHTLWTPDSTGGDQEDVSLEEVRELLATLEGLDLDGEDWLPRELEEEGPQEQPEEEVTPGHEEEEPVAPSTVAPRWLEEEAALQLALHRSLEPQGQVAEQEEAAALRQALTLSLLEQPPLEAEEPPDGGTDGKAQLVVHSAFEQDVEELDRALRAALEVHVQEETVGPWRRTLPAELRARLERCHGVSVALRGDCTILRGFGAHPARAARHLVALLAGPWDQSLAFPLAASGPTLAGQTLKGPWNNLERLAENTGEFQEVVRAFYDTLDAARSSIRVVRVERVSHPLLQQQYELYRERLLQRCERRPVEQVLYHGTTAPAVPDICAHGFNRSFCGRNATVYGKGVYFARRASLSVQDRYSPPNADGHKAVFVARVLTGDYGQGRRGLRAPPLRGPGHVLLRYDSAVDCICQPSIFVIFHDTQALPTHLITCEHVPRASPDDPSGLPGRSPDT
A further assay concerns MC-38. The experiment in a line: Antitumor activity against mouse MC38 cells implanted in C57BL/6 mouse assessed as increase in CD8+T cells in tumor at 10 mg/kg, po qd measured after 17 days by flow cytometry analysis. In kind it is functional, organism-based. Conditions: time 17.0 day.
Assay [5] is filed under the species Felis catus. Kind of assay: Binding affinity to cat PARP1 assessed as dissociative half-life by SPR assay. Background: Surface plasmon resonance follows binding to a sensor surface in real time, without labels.
Assay [6] is filed under the species Felis catus. The experiment in a line: Binding affinity to cat PARP2 assessed as dissociative half-life by SPR assay.
Assay [7] concerns the target Poly [ADP-ribose] polymerase tankyrase-2 (Homo sapiens) (UniProt Q9H2K2). Kind of assay: Inhibition of human recombinant N-terminal GST-tagged TNKS2 (849 to 1166(end) residues) expressed in Sf9 cells at 1 uM relative to control.
The target of assay [8] is Poly [ADP-ribose] polymerase 1 (Homo sapiens, UniProt P09874). Kind of assay: Inhibition of human PARP1 in human MX1 cells assessed as enzyme-DNA trapping activity at 1 uM incubated for 24 hrs by Western blot analysis. In kind it is cell-based.
Assay [9] has as its target Protein mono-ADP-ribosyltransferase PARP15 (Homo sapiens) (UniProt Q460N3). The experiment in a line: Inhibition of human N-terminal GST-tagged recombinant PARP15 (221 to 444(end) residues) expressed in Escherichia coli at 1 uM relative to control.
The target of assay [10] is Protein mono-ADP-ribosyltransferase PARP12 (Homo sapiens) (UniProt Q9H0J9). The experiment in a line: Inhibition of human N-terminal FLAG/His-tagged recombinant PARP12 (500 to 701(end) residues) expressed in Sf9 cells at 1 uM relative to control.
Sequence of Protein mono-ADP-ribosyltransferase PARP12 (Homo sapiens) (Q9H0J9 whole entry): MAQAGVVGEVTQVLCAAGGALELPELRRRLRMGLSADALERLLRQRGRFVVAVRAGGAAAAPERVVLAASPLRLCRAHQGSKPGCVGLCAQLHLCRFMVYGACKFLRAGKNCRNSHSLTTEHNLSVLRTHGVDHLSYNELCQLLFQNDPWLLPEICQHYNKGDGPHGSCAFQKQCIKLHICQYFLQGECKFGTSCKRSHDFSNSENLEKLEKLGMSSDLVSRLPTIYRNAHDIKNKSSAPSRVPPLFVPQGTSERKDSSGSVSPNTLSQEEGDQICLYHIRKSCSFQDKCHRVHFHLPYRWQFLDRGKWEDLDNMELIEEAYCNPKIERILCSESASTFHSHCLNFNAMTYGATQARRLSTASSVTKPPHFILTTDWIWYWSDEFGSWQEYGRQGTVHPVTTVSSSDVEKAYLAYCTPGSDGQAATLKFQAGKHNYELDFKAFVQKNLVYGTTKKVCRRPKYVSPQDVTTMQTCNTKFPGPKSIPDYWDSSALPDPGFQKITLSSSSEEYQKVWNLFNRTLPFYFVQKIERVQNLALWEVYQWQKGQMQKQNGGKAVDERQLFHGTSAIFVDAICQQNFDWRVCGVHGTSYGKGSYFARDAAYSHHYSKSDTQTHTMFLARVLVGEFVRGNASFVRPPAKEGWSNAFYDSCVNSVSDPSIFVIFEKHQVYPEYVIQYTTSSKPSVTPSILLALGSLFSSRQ
Assay [11] concerns the target Protein mono-ADP-ribosyltransferase TIPARP (Homo sapiens) (UniProt Q7Z3E1). Kind of assay: Inhibition of PARP7 in human THP-1 cells assessed as induction of TBK1 phosphorylation at 10 uM incubated for 24 hrs by immunoblotting analysis. Type of assay: cell-based.

Molecules are shown by their SMILES. Calls of active or inactive are those of the source. The rule behind the calls is not given here.

Sequence of Protein mono-ADP-ribosyltransferase PARP15 (Homo sapiens) (Q460N3 whole entry): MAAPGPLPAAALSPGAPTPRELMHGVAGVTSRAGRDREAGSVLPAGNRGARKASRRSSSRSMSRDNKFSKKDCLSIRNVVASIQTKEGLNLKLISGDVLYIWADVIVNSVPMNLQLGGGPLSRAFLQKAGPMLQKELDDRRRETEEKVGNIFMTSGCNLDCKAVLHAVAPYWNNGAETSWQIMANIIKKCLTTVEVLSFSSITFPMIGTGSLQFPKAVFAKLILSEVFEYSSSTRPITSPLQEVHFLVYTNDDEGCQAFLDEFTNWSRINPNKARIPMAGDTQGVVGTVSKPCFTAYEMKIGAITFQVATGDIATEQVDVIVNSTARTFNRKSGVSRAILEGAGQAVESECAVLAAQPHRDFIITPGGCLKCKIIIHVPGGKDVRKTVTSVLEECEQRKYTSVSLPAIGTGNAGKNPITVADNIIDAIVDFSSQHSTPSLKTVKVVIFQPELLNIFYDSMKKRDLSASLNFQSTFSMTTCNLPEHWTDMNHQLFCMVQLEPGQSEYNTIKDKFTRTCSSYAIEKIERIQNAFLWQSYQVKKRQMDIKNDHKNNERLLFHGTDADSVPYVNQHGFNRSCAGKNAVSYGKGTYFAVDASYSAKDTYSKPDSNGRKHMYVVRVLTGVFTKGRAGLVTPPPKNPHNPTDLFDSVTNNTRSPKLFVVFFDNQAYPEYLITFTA
Sequence of Poly [ADP-ribose] polymerase tankyrase-2 (Homo sapiens) (Q9H2K2 whole entry): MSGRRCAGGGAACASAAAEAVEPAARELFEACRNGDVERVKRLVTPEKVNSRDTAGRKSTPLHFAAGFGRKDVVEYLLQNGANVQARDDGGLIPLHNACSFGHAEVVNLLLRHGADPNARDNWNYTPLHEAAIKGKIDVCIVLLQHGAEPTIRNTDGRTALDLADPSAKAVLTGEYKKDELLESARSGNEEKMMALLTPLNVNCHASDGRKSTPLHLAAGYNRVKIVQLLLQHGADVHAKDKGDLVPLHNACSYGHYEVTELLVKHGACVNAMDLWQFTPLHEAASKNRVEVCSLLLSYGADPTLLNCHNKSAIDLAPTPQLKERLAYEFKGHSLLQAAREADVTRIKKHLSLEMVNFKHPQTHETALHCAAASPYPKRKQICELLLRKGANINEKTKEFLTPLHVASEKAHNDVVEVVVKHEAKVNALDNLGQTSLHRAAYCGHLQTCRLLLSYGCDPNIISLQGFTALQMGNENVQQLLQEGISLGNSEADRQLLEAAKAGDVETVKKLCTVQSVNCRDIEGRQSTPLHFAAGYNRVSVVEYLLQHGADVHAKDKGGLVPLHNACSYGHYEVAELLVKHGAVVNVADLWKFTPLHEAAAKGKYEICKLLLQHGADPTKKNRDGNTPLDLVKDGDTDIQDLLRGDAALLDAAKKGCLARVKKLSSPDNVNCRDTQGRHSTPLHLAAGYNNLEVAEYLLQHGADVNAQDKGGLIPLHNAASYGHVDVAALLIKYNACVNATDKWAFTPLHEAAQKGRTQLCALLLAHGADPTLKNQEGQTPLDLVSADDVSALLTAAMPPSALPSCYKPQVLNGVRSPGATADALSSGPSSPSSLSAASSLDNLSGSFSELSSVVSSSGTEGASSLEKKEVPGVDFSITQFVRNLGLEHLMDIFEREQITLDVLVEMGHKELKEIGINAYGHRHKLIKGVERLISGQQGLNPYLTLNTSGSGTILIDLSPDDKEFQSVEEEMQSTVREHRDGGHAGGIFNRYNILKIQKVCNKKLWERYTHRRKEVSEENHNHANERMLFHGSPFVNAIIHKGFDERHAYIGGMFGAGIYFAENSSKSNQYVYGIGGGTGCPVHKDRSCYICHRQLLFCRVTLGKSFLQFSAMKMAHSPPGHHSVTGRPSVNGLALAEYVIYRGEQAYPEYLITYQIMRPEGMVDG

Consider `CCC(CC)N1CCN(C(=O)c2cc(Cn3c(=O)[nH]c(=O)c4ccccc43)ccc2F)CC1=O`, for which the inhibition entry (in the assay on THP-1; in assay [11]) was “Active” each time. Further, the inhibition entry in assay [1], in assay [2], in [3], in assay [4], in [7] and in assay [10] was “inactive” throughout. Moreover, the result in the assay with MC-38 was Active. The T1/2 in the assay filed under Felis catus [5] stood at 2.36 h; in the assay listed under Felis catus [6] it was 2.33 h. The PARP1-DNA trapping activity result in assay [8] is “Active”. Moreover, in assay [9], the inhibition is 45%.
